Measurements reported in patent US8865911B2, “Compounds and their use as BACE inhibitors” (Astrazeneca AB, priority 2010, dated 2014).

Target: human β-Secretase (Homo sapiens (Human), UniProt P56817)
Assay: TR-FRET assay
Format: biochemical
Conditions: sBACE-Fc, substrate (Europium)CEVNLDAEFK(Qsy7) 100 nM, pH4.5, 15 minutes at r.t.
Method: The β-secretase enzyme used in the TR-FRET is prepared as follows: The cDNA for the soluble part of the human β-Secretase (AA 1-AA 460) was cloned using the ASP2-Fc10-1-IRES-GFP-neoK mammalian expression vector. The gene was fused to the Fc domain of IgG1 (affinity tag) and stably cloned into HEK 293 cells.
The robotic systems Biomek FX and Velocity 11 were used for all liquid handling and the enzyme and substrate solutions were kept on ice until they were placed in the robotic system. Enzyme (9 μl) was added to the plate then 1 μl of compound in dimethylsulphoxide was added, mixed and pre-incubated for 10 minutes. Substrate (10 μl) was then added, mixed and the reaction proceeded for 15 minutes at r.t. The reaction was stopped with the addition of Stop solution (7 μl, NaAcetate, pH 9). […] The dimethylsulphoxide control, instead of test compound, defined the 100% activity level and 0% activity was defined by wells lacking enzyme (replaced with reaction buffer).

human β-Secretase, sequence (P56817 22-460): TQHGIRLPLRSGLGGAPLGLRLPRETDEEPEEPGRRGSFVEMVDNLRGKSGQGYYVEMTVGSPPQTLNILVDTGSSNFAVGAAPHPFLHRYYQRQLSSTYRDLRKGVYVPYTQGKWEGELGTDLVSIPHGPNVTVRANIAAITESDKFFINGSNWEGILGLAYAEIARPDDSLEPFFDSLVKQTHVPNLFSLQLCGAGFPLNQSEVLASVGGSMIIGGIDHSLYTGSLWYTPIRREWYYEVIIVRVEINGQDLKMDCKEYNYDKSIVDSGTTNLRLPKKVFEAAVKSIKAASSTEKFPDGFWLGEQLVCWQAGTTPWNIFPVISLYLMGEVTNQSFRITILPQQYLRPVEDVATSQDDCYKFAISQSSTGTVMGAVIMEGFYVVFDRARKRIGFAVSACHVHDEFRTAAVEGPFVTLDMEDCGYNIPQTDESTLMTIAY

CC1=NC2(CC(C3CCOC(C)(C)C3)Oc3ccc(Br)cc32)N=C1N (mixture of isomers) [Example 49 Isomeric mixture 1, 6-Bromo-2-(2,2-dimethyltetrahydro-2H-pyran-4-yl)-5′-methyl-spiro[chromane-4,2′-imidazole]-4′-amine]
IC50: 10 nM

CC1=NC2(CC(C3CCOC(C)(C)C3)Oc3ccc(Br)cc32)N=C1N (mixture of isomers) [Example 49 Isomeric mixture 2, 6-Bromo-2-(2,2-dimethyltetrahydro-2H-pyran-4-yl)-5′-methyl-spiro[chromane-4,2′-imidazole]-4′-amine]
IC50 in TR-FRET assay: inactive

CC1=NC2(CC(C3CCOC(C)(C)C3)Oc3ccc(-c4cccc(Cl)c4)cc32)N=C1N (racemic) [Example 50 Isomeric mixture 1, 6-(3-Chlorophenyl)-2-(2,2-dimethyltetrahydro-2H-pyran-4-yl)-5′-methylspiro[chroman-4,2′-imidazol]-4′-amine]
IC50: 100 nM

CC1=N[C@]2(N=C1N)c1cc(-c3cc(F)cc(C#N)c3)ccc1C[C@]21CC[C@@H](OC(F)F)CC1 (racemic) [Example 105, 3-[(1r,4r)-4″-Amino-4-(difluoromethoxy)-5″-methyl-3′H-dispiro[cyclohexane-1,2′-indene-1′,2″-imidazol]-6′-yl]-5-fluorobenzonitrile]
IC50: 22 nM

CC1=NC2(CC(C3CCCOC3)Oc3ccc(Br)cc32)N=C1N (single isomer, unassigned) [Example 47 Isomer 1, 6-Bromo-5′-methyl-2-(tetrahydro-2H-pyran-3-yl)spiro[chromane-4,2′-imidazole]-4′-amine]
IC50 in TR-FRET assay: inactive

CC1=NC2(CC(C3CCCOC3)Oc3ccc(Br)cc32)N=C1N (single isomer, unassigned) [Example 47 Isomer 2, 6-Bromo-5′-methyl-2-(tetrahydro-2H-pyran-3-yl)spiro[chromane-4,2′-imidazole]-4′-amine]
IC50: 1030 nM

CC1=NC2(CC(C3CCCOC3)Oc3ccc(Br)cc32)N=C1N (single isomer, unassigned) [Example 47 Isomer 3, 6-Bromo-5′-methyl-2-(tetrahydro-2H-pyran-3-yl)spiro[chromane-4,2′-imidazole]-4′-amine]
IC50 in TR-FRET assay: inactive

CC1=NC2(CC(C3CCCOC3)Oc3ccc(Br)cc32)N=C1N (single isomer, unassigned) [Example 47 Isomer 4, 6-Bromo-5′-methyl-2-(tetrahydro-2H-pyran-3-yl)spiro[chromane-4,2′-imidazole]-4′-amine]
IC50: 65300 nM

CC1=NC2(CC(C3CCCOC3)Oc3ccc(Br)cc32)N=C1N (single isomer, unassigned) [Example 47 Isomer 5, 6-Bromo-5′-methyl-2-(tetrahydro-2H-pyran-3-yl)spiro[chromane-4,2′-imidazole]-4′-amine]
IC50: 19800 nM

CC1=NC2(CC(C3CCCOC3)Oc3ccc(Br)cc32)N=C1N (single isomer, unassigned) [Example 47 Isomer 6, 6-Bromo-5′-methyl-2-(tetrahydro-2H-pyran-3-yl)spiro[chromane-4,2′-imidazole]-4′-amine]
IC50: 1380 nM

CC1=NC2(CC(C3CCCOC3)Oc3ccc(Br)cc32)N=C1N (single isomer, unassigned) [Example 47 Isomer 7, 6-Bromo-5′-methyl-2-(tetrahydro-2H-pyran-3-yl)spiro[chromane-4,2′-imidazole]-4′-amine]
IC50 in TR-FRET assay: inactive

CC1=NC2(CC(C3CCCOC3)Oc3ccc(Br)cc32)N=C1N (single isomer, unassigned) [Example 47 Isomer 8, 6-Bromo-5′-methyl-2-(tetrahydro-2H-pyran-3-yl)spiro[chromane-4,2′-imidazole]-4′-amine]
IC50: 8100 nM

CC1=NC2(CCOc3ccc(-c4cc(Cl)cc(Cl)c4)cc32)N=C1N (stereo not drawn) [Example 1, 6-(3,5-Dichlorophenyl)-5′-methylspiro[chroman-4,2′-imidazol]-4′-amine]
IC50: 157 nM

COc1ccc(OC)c(-c2ccc3c(c2)C2(CCO3)N=C(C)C(N)=N2)c1 (stereo not drawn) [Example 5, 6-(2,5-Dimethoxyphenyl)-5′-methylspiro[chroman-4,2′-imidazol]-4′-amine]
IC50: 3640 nM

COc1ccc(C)cc1-c1ccc2c(c1)C1(CCO2)N=C(C)C(N)=N1 (stereo not drawn) [Example 10, 6-(2-Methoxy-5-methylphenyl)-5′-methylspiro[chroman-4,2′-imidazol]-4′-amine]
IC50: 6850 nM

CC1=NC2(CCOc3ccc(-c4cc(C)ccc4F)cc32)N=C1N (stereo not drawn) [Example 11, 6-(2-Fluoro-5-methylphenyl)-5′-methylspiro[chroman-4,2′-imidazol]-4′-amine]
IC50: 1980 nM

CC1=NC2(CCOc3ccc(NC(=O)c4ccc(Cl)cn4)cc32)N=C1N (stereo not drawn) [Example 13a, N-(4′-Amino-5′-methylspiro[chroman-4,2′-imidazole]-6-yl)-5-chloropicolinamide]
IC50: 1300 nM

CC#CCOc1ccc(C(=O)Nc2ccc3c(c2)C2(CCO3)N=C(C)C(N)=N2)nc1 (stereo not drawn) [Example 13d, N-(4′-amino-5′-methylspiro[chroman-4,2′-imidazole]-6-yl)-5-(but-2-ynyloxy)picolinamide]
IC50: 112 nM

CC1=NC2(CCOc3ccc(NC(=O)c4ccc(C)s4)cc32)N=C1N (stereo not drawn) [Example 13f, N-(4′-Amino-5′-methylspiro[chroman-4,2′-imidazole]-6-yl)-5-methylthiophene-2-carboxamide]
IC50: 6460 nM

CC1=NC2(CCOc3ccc(NC(=O)c4ncc(Cl)cc4Cl)cc32)N=C1N (stereo not drawn) [Example 13i, N-(4′-Amino-5′-methylspiro[chroman-4,2′-imidazole]-6-yl)-3,5-dichloropicolinamide]
IC50: 560 nM

CC1=NC2(N=C1N)c1cc(-c3cccc(Cl)c3)ccc1CC21CCOCC1 (stereo not drawn) [Example 26a, 6′-(3-Chlorophenyl)-5-methyl-2″,3″,5″,6″-tetrahydro-3′H-dispiro[imidazole-2,1′-indene-2′,4″-pyran]-4-amine]
IC50: 100 nM

CC1=NC2(N=C1N)c1cc(-c3ccc(F)c(Cl)c3)ccc1CC21CCOCC1 (stereo not drawn) [Example 26c, 6′-(3-Chloro-4-fluorophenyl)-5-methyl-2″,3″,5″,6″-tetrahydro-3′H-dispiro[imidazole-2,1′-indene-2′,4″-pyran]-4-amine]
IC50: 145 nM

CC1=NC2(N=C1N)c1cc(NC(=O)c3ccc(Cl)cn3)ccc1CC21CCC(F)(F)CC1 (stereo not drawn) [Example 28d, N-(4″-Amino-4,4-difluoro-5″-methyl-3′H-dispiro[cyclohexane-1,2′-indene-1′,2″-imidazol]-6′-yl)-5-chloropyridine-2-carboxamide]
IC50: 408 nM

CC1=NC2(N=C1N)c1cc(Br)ccc1CC21CCC1 (stereo not drawn) [Example 54, 6′-Bromo-5″-methyl-3′H-dispiro[cyclobutane-1,2′-indene-1′,2″-imidazol]-4″-amine]
IC50: 6610 nM

CC1=NC2(N=C1N)c1cc(C#CC(C)(C)C)ccc1CC21CCC1 (stereo not drawn) [Example 59, 6′-(3,3-Dimethylbut-1-yn-1-yl)-5″-methyl-3′H-dispiro[cyclobutane-1,2′-indene-1′,2″-imidazol]-4″-amine]
IC50: 2610 nM

CC#Cc1cncc(-c2ccc3c(c2)C2(N=C(C)C(N)=N2)[C@]2(CC[C@H](OC)CC2)C3)c1C (stereo partly drawn) [Example 63, (1r,4r)-4-Methoxy-5″-methyl-6′-[4-methyl-5-(prop-1-yn-1-yl)pyridin-3-yl]-3′H-dispiro[cyclohexane-1,2′-indene-1′,2″-imidazol]-4″-amine]
IC50: 89 nM

CCC1=NC2(N=C1N)c1cc(Br)ccc1C[C@]21CC[C@@H](OC)CC1 (stereo partly drawn) [Example 64, (1r,4r)-6′-Bromo-5″-ethyl-4-methoxy-3′H-dispiro[cyclohexane-1,2′-indene-1′,2″-imidazol]-4″-amine]
IC50: 401 nM

COCc1cc(F)cc(-c2ccc3c(c2)C2(N=C(C)C(N)=N2)[C@]2(CC[C@H](OC)CC2)C3)c1 (stereo partly drawn) [Example 81, (1r,4r)-6′-[3-Fluoro-5-(methoxymethyl)phenyl]-4-methoxy-5″-methyl-3′H-dispiro[cyclohexane-1,2′-indene-1′,2″-imidazol]-4″-amine]
IC50: 23 nM

CO[C@H]1CC[C@]2(CC1)Cc1ccc(-c3cccc(F)c3F)cc1[C@@]21N=C(C)C(N)=N1 [Example 101]
IC50: 19.8 nM

CC1=NC2(N=C1N)c1cc(-c3cc(F)cc(F)c3)ccc1C[C@]21CC[C@@H](OC(F)F)CC1 (stereo partly drawn) [Example 109, (1r,4r)-4-(Difluoromethoxy)-6′-(3,5-difluorophenyl)-5″-methyl-3′H-dispiro[cyclohexane-1,2′-indene-1′,2″-imidazol]-4″-amine]
IC50: 21 nM

CC#Cc1cncc(-c2ccc3c(c2)C2(N=C(C)C(N)=N2)[C@]2(CC[C@](C)(OC)CC2)C3)c1 (stereo partly drawn) [Example 111, (1r,4r)-4-Methoxy-4,5″-dimethyl-6′-[5-(prop-1-yn-1-yl)pyridin-3-yl]-3′H-dispiro[cyclohexane-1,2′-indene-1′,2″-imidazol]-4″-amine]
IC50: 51 nM

CC1=NC2(N=C1N)c1cc(-c3cc(F)cc(C#N)c3)ccc1CC21CCC(=O)CC1 (stereo not drawn) [Example 115, 3-(4″-Amino-5″-methyl-4-oxodispiro[cyclohexane-1,2′-[1H]indene-1′(3′H),2″-[2H]imidazol]-6′-yl)-5-fluorobenzonitrile]
IC50: 632 nM

CC1=NC2(N=C1N)c1cc(Br)ccc1CC21CCC(C(F)F)CC1 (stereo not drawn) [Example 128, 6′-Bromo-4-(difluoromethyl)-5″-methyl-3′H-dispiro[cyclohexane-1,2′-indene-1′,2″-imidazol]-4″-amine]
IC50: 2610 nM
